Results taken from patent US7855183B2, “Methods of treatment of a bcl-2 disorder using bcl-2 antisense oligomers” (Genta Incorporated, priority 2000, dated 2010).

Legend:
[1] = test system: LCLs (EBV-associated lymphoproliferative disease); test: Survival in the human-SCID model of PTLD; format: in vivo, mice; details: for median survival: VP16 15 mg/kg ip q3dx4, G3139 10 mg/kg/d over 12 d ip, rituximab 20 mg/kg ip wklyx4, start 15 days after 20 million LCLs ip, untreated 50 days; for animals remaining tumor-free: monotherapy groups, stated jointly
Text: (§1) The use of the targeted therapies, G3139 ([…], Genta, Inc.) and rituximab, to enhance chemosensitivity in EBV-associated lymphoproliferative disease (LPD) have been explored. EBV+LPDs such as post-transplant lymphoproliferative disorder (PTLD) and AIDS-related lymphoma (ARL) typically express bcl-2 and CD20. […] To determine whether these targeted therapies enhance chemosensitivity in EBV+LPD, the effects of cytotoxic drugs in combination with G3139 or rituximab on proliferation and apoptosis in LCLs were examined. […] To determine whether G3139 or rituximab enhanced the anti-tumor activity of chemotherapy in vivo, the effects of VP16 (15 mg/kg ip q3d×4); G3139 (10 mg/kg/d over 12 d ip q3d) or rituximab (20 mg/kg ip wkly×4); and VP16+G3139 or VP16+rituximab (same doses) on survival in the human-SCID model of PTLD were compared. Treatment was started 15 days after ip injection of 20 million LCLs.

[2] = test system: LCLs (lymphoblastoid cells); test: Proliferation and apoptosis in LCLs with cytotoxic drugs plus G3139 or rituximab; format: cell-based
Text: as §1

## COc1cc([C@@H]2c3cc4c(cc3[C@@H](O[C@@H]3O[C@@H]5CO[C@@H](C)O[C@H]5[C@H](O)[C@H]3O)[C@H]3COC(=O)[C@H]23)OCO4)cc(OC)c1O [VP16, etoposide]
[1]
  median survival: 86 days
  animals remaining tumor-free: 7%

## rituximab: targeted therapy; EBV+LPDs typically express bcl-2 and CD20
[2]
  effect in combination with chemotherapy: augmented the effects of chemotherapy
[2]; alone
  effect on apoptosis: no effect
  effect on proliferation: minimal
[1]
  median survival: 88 days
  animals remaining tumor-free: 7%
